In patent US12590083B2, “Inhibitors of spinster homolog 2 (SPNS2) for use in therapy” (University of Virginia Patent Foundation, priority 2019, dated 2026):
Structures can show the parent of a compound that is named as a salt.

The compounds below were run against T1, human SPNS2 (Homo sapiens, UniProt Q8IVW8) (assay: S1P transporter assay: growth of S. cerevisiae strain with forced expression of a mammalian SphK and human SPNS2). Settings: in vitro inhibition of SPNS2; growth of S. cerevisiae strain expressing mammalian SphK and human SPNS2; compounds as their pharmaceutical salts.
T1 construct: expressed in transfected cells; host or cells: Saccharomyces cerevisiae strain with forced expression of a mammalian SphK and human SPNS2
T1 sequence (Q8IVW8 1-549): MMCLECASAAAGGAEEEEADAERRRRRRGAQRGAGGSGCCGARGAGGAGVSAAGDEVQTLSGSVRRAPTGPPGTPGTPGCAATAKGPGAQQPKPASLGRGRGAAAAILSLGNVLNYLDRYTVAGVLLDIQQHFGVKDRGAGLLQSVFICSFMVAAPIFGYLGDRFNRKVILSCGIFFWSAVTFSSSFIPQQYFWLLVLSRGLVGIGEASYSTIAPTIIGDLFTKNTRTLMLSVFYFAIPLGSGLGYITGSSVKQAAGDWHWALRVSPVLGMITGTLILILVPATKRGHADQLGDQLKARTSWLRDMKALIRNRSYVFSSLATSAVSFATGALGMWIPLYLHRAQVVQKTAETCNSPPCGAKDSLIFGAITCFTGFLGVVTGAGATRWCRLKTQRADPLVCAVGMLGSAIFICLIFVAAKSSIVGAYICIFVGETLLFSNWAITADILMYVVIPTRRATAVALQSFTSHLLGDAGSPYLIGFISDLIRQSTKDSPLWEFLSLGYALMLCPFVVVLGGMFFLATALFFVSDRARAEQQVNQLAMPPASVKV
Type: cell-based
Text: Transporter assays are vectorial and, therefore, require measurement of the transported analyte in different compartments. The assay of S1P transporters is problematic because S1P is exported, but not imported, by SPNS2, which obviates measuring uptake of mass- or radio-labeled S1P into transporter-expressing cells.
To assay for SPNS2 inhibitor hits, we took advantage of the growth inhibitory effects of excessive levels of phosphorylated Long Chain Base (phospho-LCB) levels on the budding yeast, S. cerevisiae (Kharel Y, et al. Saccharomyces cerevisiae as a platform for assessing sphingolipid lipid kinase inhibitors. PLoS One 13, e0192179 (2018) PMC5908134). Yeast lack the desaturase that converts dihydroceramide to ceramide and, therefore, have neither sphingosine nor S1P. Rather, yeast have the reduced form, dihydrosphingosine, and the 4-hydroxyl analog, phytosphingosine and their respective phosphates. Like all eukaryotes, the yeast synthesizes (via LCB kinases (SphKs)) and degrades (via phospho-LCB lyase and phosphatase) phospho-LCBs, (dhS1P, phytoS1P). Yeast lack phospho-LCB transporters such as SPNS2, which are found only in vertebrates. To assess inhibition of SPNS2 in vitro, we used a strain of S. cerevisiae wherein expression of a mammalian SphK and human SPNS2 were forced. SPNS2 inhibitors decrease the growth of this strain. Table 2 below presents in vitro inhibition data against SPNS2 for exemplary compounds, presented here as their pharmaceutical salts, of the disclosure (A≤2 μM, B>2 μM).
With `CCCCCO/N=C(\C)c1ccc(-c2noc([C@@H]3CCN(C(=N)N)C3)n2)cc1` [Compound 40l, (R)-3-(3-(4-(1-((pentyloxy)imino)ethyl)phenyl)-1,2,4-oxadiazol-5-yl)pyrrolidine-1-carboximidamide hydrochloride] the IC50 was > 2000 nM. `CCCCCCCCCCc1ccc(-c2noc([C@@H]3CCCNC3)n2)cc1C(F)(F)F` [Compound 28e, (R)-3-(4-decyl-3-(trifluoromethyl)phenyl)-5-(piperidin-3-yl)-1,2,4-oxadiazole hydrochloride] was tested, and the IC50 was > 2000 nM. `CCCCCCCCOc1ccc(-c2noc([C@@H]3CCCNC3)n2)cc1C(F)(F)F` [Compound 21d, (R)-3-(4-(octyloxy)-3-(trifluoromethyl)phenyl)-5-(piperidin-3-yl)-1,2,4-oxadiazole hydrochloride] was tested, and the IC50 was > 2000 nM. In the case of `CCCCCCCCOc1ccc(-c2noc(C3CN(C(=N)N)C3)n2)cc1C(F)(F)F` [Compound 23a, 3-(3-(4-(octyloxy)-3-(trifluoromethyl)phenyl)-1,2,4-oxadiazol-5-yl)azetidine-1-carboximidamide hydrochloride], the IC50 is reported as ≤ 2000 nM. `CCCCCCCCCCc1ccc(-c2noc(C[C@@H]3CCCN(C(=N)N)C3)n2)cc1` [Compound 7q, (S)-3-((3-(4-decylphenyl)-1,2,4-oxadiazol-5-yl)methyl)piperidine-1-carboximidamide 2,2,2-trifluoroacetate] was tested, and the IC50 was ≤ 2000 nM. In the case of `C/C(=N\OCc1cc(C(F)(F)F)cc(C(F)(F)F)c1)c1ccc(-c2noc([C@@H]3CCNC3)n2)cc1` [Compound 38b, (R)-1-(4-(5-(pyrrolidin-3-yl)-1,2,4-oxadiazol-3-yl)phenyl)ethan-1-one O-(3,5-bis(trifluoromethyl)benzyl) oxime hydrochloride], the IC50 is reported as ≤ 2000 nM. With `C/C(=N\OCc1cc(C(F)(F)F)cc(C(F)(F)F)c1)c1ccc(-c2noc([C@@H]3CCN(C(=N)N)C3)n2)cc1` [Compound 40b, (R)-3-(3-(4-(1-(((3,5-bis(trifluoromethyl)benzyl)oxy)imino)ethyl)phenyl)-1,2,4-oxadiazol-5-yl)pyrrolidine-1-carboximidamide hydrochloride] the IC50 was ≤ 2000 nM. With `CCCCCCCCNC(=O)c1ccc(-c2noc([C@@H]3CCNC3)n2)cc1` [Compound 38p, (R)—N-octyl-4-(5-(pyrrolidin-3-yl)-1,2,4-oxadiazol-3-yl)benzamide hydrochloride] the IC50 was > 2000 nM. `C/C(=N\OCc1ccc(Br)cc1)c1ccc(-c2noc([C@@H]3CCNC3)n2)cc1` [Compound 38n, (R)-1-(4-(5-(pyrrolidin-3-yl)-1,2,4-oxadiazol-3-yl)phenyl)ethan-1-one O-(4-bromobenzyl) oxime hydrochloride] was tested, and the IC50 was ≤ 2000 nM. For `CCCCCCCCCCc1ccc(-c2noc(CC3CN(C(=N)N)C3)n2)cc1` [Compound 7i], the IC50 was ≤ 2000 nM. For `CCCCCCCCCO/N=C(\C)c1ccc(-c2noc([C@@H]3CCN(C(=N)N)C3)n2)cc1` [Compound 40j, (R)-3-(3-(4-(1-((nonyloxy)imino)ethyl)phenyl)-1,2,4-oxadiazol-5-yl)pyrrolidine-1-carboximidamide hydrochloride], the IC50 was > 2000 nM. In the case of `N=C(N)N1CCC[C@@H](c2nc(-c3ccc(OCc4ccc(C(F)(F)F)cc4)c(C(F)(F)F)c3)no2)C1` [Compound 23h, (R)-3-(3-(3-(trifluoromethyl)-4-((4-(trifluoromethyl)benzyl)oxy)phenyl)-1,2,4-oxadiazol-5-yl)piperidine-1-carboximidamide hydrochloride], the IC50 is reported as > 2000 nM. With `CCCCc1ccc(Nc2ccc(-c3noc([C@@H]4CCN(C(=N)N)C4)n3)cn2)cc1` [Compound 15i, (R)-3-(3-(6-((4-butylphenyl)amino)pyridin-3-yl)-1,2,4-oxadiazol-5-yl)pyrrolidine-1-carboximidamide hydrochloride] the IC50 was > 2000 nM. For `Brc1ccc(Br)c(Nc2ccc(-c3noc([C@@H]4CCNC4)n3)cn2)c1` [Compound 13f, (R)—N-(2,5-dibromophenyl)-5-(5-(pyrrolidin-3-yl)-1,2,4-oxadiazol-3-yl)pyridin-2-amine hydrochloride], the IC50 was > 2000 nM. `N=C(N)N1CC[C@@H](c2nc(-c3ccc(N4CCOCC4)nc3)no2)C1` [Compound 15d, (R)-3-(3-(6-morpholinopyridin-3-yl)-1,2,4-oxadiazol-5-yl)pyrrolidine-1-carboximidamide hydrochloride] was tested, and the IC50 was > 2000 nM. In the case of `C/C(=N\OCc1ccc2c(c1)C(C)(C)CCC2(C)C)c1ccc(-c2noc([C@@H]3CCNC3)n2)cc1` [Compound 38h, (R)-1-(4-(5-(pyrrolidin-3-yl)-1,2,4-oxadiazol-3-yl)phenyl)ethan-1-one O-((5,5,8,8-tetramethyl-5,6,7,8-tetrahydronaphthalen-2-yl)methyl) oxime hydrochloride], the IC50 is reported as > 2000 nM. For `CCCCCCCCCc1ccc(-c2noc([C@@H]3CCCN(C(=N)N)C3)n2)cc1C(F)(F)F` [Compound 30d, (R)-3-(3-(4-nonyl-3-(trifluoromethyl)phenyl)-1,2,4-oxadiazol-5-yl)piperidine-1-carboximidamide hydrochloride], the IC50 was ≤ 2000 nM. In the case of `C/C(=N\OCc1ccc(C(C)(C)C)cc1)c1ccc(-c2noc([C@@H]3CCN(C(=N)N)C3)n2)cc1` [Compound 40k, (R)-3-(3-(4-(1-(((4-(tert-butyl)benzyl)oxy)imino)ethyl)phenyl)-1,2,4-oxadiazol-5-yl)pyrrolidine-1-carboximidamide hydrochloride], the IC50 is reported as ≤ 2000 nM. For `CCCCCCCCCOc1ccc(-c2noc([C@@H]3CCCN(C(=N)N)C3)n2)cc1C(F)(F)F` [Compound 23e, (R)-3-(3-(4-(nonyloxy)-3-(trifluoromethyl)phenyl)-1,2,4-oxadiazol-5-yl)piperidine-1-carboximidamide hydrochloride], the IC50 was ≤ 2000 nM. `CCCCCCCCCCc1ccc(-c2noc(CC3CNC3)n2)cc1` [Compound 5j, 5-(azetidin-3-ylmethyl)-3-(4-decylphenyl)-1,2,4-oxadiazole 2,2,2-trifluoroacetate] was tested, and the IC50 was ≤ 2000 nM. `CCCCCCCCCCc1ccc(Nc2ccc(-c3noc([C@@H]4CCNC4)n3)cn2)cc1` [Compound 13h, (R)—N-(4-decylphenyl)-5-(5-(pyrrolidin-3-yl)-1,2,4-oxadiazol-3-yl)pyridin-2-amine hydrochloride] was tested, and the IC50 was > 2000 nM. For `CCCCCCCCCCc1ccc(-c2noc([C@@H]3CCCNC3)n2)cc1` [Compound 5h, (R)-3-(3-(4-decylphenyl)-1,2,4-oxadiazol-5-yl)piperidin-1-ium 2,2,2-trifluoroacetate], the IC50 was > 2000 nM. With `CCCCCCCCCCCc1ccc(-c2noc([C@@H]3CCCN(C(=N)N)C3)n2)cc1` [Compound 7ya, (R)-3-(3-(4-undecylphenyl)-1,2,4-oxadiazol-5-yl)piperidine-1-carboximidamide hydrochloride] the IC50 was ≤ 2000 nM. With `C/C(=N\OCc1ccccc1)c1ccc(-c2noc([C@@H]3CCN(C(=N)N)C3)n2)cc1` [Compound 40g, (R)-3-(3-(4-(1-((benzyloxy)imino)ethyl)phenyl)-1,2,4-oxadiazol-5-yl)pyrrolidine-1-carboximidamide hydrochloride] the IC50 was > 2000 nM. For `N=C(N)N1CC(c2nc(-c3ccc(OCCCc4ccccc4)cc3)no2)C1` [Compound 15j, 3-(3-(4-(3-phenylpropoxy)phenyl)-1,2,4-oxadiazol-5-yl)azetidine-1-carboximidamide hydrochloride], the IC50 was > 2000 nM.
